6 compounds from patent publication US20240000119A1, “MEGASTIGMANE DERIVATIVE COMPOSITIONS AND METHODS FOR TASTE MODULATION” (INTERNATIONAL FLAVORS & FRAGRANCES, priority 2020, published 2024) can be followed below.

Test [1] is described as follows: Flavor profiles of megastigmane derivative solutions in water compared with sucrose solution. The text has this: The flavor profiles of various megastigmane derivative solutions in water including lauroside A (0.5 ppm), ampelopsisionoside (0.5 ppm), bridelionoside F (0.5 ppm), actinidioionoside (0.5 ppm) and roseoside solutions (0.5 ppm) were each compared with that of sucrose solution (1.5%).

The nature of test [2]: Sweetness enhancement at different concentrations: flavor profile of sucrose base solution with added roseoside. The method, then:
(§1) A sucrose base solution (4%) (“base”) was prepared in water.
Roseoside was added to the base to provide a series of solutions with concentrations ranging from 1 ppb to 5 ppm. The flavor profile of the sucrose solution with added roseoside is reported in the following: […]

A short description of test [3]: Enhancement of mouthfeel by roseoside in water.
The nature of test [4]: Enhancement of sucrose sweetness: flavor profile of sucrose base solution with added megastigmane derivative. As to conditions: 0.5 ppm in sucrose base solution (4%). As to the method:
as §1
Solutions of lauroside A, ampelopsisionoside, bridelionoside F and actinidioionoside were prepared in water (0.01%).
The solutions of lauroside A, ampelopsisionoside, bridelionoside F and actinidioionoside (0.01%) were added to the base, respectively, to a final concentration of 0.5 ppm. The flavor profiles of the sucrose base solution with added megastigmane derivatives are reported in the following: […]

Where [5] appears, read: 0.5 ppm in water, compared with sucrose solution (1.5%).

As for `OC[C@H]1O[C@@](CO)(O[C@H]2O[C@H](CO)[C@@H](O)[C@H](O)[C@H]2O)[C@@H](O)[C@@H]1O` [sucrose, reference compound], the “sweet taste (flavor profile)” value in test [1] (sucrose solution (1.5%)) was “tasted slightly sweet”.

Turning to `CC1=CC(=O)CC(C)(C)C1(O)/C=C/C(C)OC1OC(CO)C(O)C(O)C1O` (stereo not shown) [Roseoside, roseoside], the “sweet taste (flavor profile)” value in test [1] (setting [5]) is listed as “none of the megastigmane derivation solutions exhibited a sweet taste”. The “Flavor Profile” value in test [2] (1 ppb in sucrose base solution (4%)) is “Slightly enhanced sweetness and viscous mouthfeel”; in test [2] (1 ppm in sucrose base solution (4%)), “Slightly enhanced and lingering sweetness, viscous”; in test [2] (5 ppm in sucrose base solution (4%)), “More enhanced and lingering sweetness, slight”; in test [2] (10 ppb in sucrose base solution (4%)), “Slightly enhanced and lingering sweetness, viscous”; in test [2] (100 ppb in sucrose base solution (4%)), “Slightly enhanced and lingering sweetness, viscous”; in test [3] (0.5 ppm in water) it was “Slight astringency, not sweet”. In test [3] (2 ppm in water), the “Flavor Profile” value is given as “Slight astringency, very slight bitterness, slightly”.

As for `CC1=C(/C=C/C(C)OC2OC(CO)C(O)C(O)C2O)C(C)(C)CC(O)C1O` (stereo not shown) [Bridelionoside F, bridelionoside F], in test [1] (setting [5]), the “sweet taste (flavor profile)” value is “none of the megastigmane derivation solutions exhibited a sweet taste”. Also, the “Flavor Profile” value in test [4] is “Enhanced sweetness and mouthfeel with para”.

Consider `CC(/C=C/C1(O)C(C)CC(=O)CC1(C)C)OC1OC(CO)C(O)C(O)C1O` (stereo not shown) [Lauroside A, lauroside A], for which the “sweet taste (flavor profile)” value in test [1] (setting [5]) is recorded as “none of the megastigmane derivation solutions exhibited a sweet taste”. In addition, the “Flavor Profile” value in test [4] was “Enhanced sweetness and mouthfeel, mouth coating,”.

`CC(/C=C/C1(O)C(C)CC(=O)CC1(C)C)OC1OC(CO)C(O)C(O)C1O` (stereo not shown) [Ampelopsisionoside, ampelopsisionoside]: the “sweet taste (flavor profile)” value in test [1] (setting [5]) is on record as “none of the megastigmane derivation solutions exhibited a sweet taste”.

Regarding `CC(/C=C/C1(O)C(C)(C)CC(O)CC1(C)O)OC1OC(CO)C(O)C(O)C1O` (stereo not shown) [Actinidioionoside, actinidioionoside], in test [1] (setting [5]), the “sweet taste (flavor profile)” value is on record as “none of the megastigmane derivation solutions exhibited a sweet taste”. The “Flavor Profile” value in test [4] is “Enhanced sweetness and mouthfeel”.
